According to patent US12570666B2, “Furoindazole derivatives” (Bayer Aktiengesellschaft, priority 2019, dated 2026):

Target: T1, human GPR84 receptor (Homo sapiens, UniProt Q9NQS5)
T1 construct: frozen aliquots prepared by acCELLerate; host or cells: CHO-K1
Assay: cAMP HTRF assay for identification of cellular GPR84 antagonists
Type: cell-based
Conditions: CHO-K1 cells stably expressing human GPR84; Forskolin + agonist 6-OAU (EC80); average or median values
Outline: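 Forskolin-stimulated CHO-K1 cells stably expressing human GPR84, agonist-suppressed cAMP measured by HTRF (665/620 ratio) after lysis. Compounds at 11 concentrations, 20 μM to 0.07 nM, duplicate; normalized to DMSO and no-agonist controls; IC50 by 4-parameter fit.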

T1 sequence (Q9NQS5 whole entry): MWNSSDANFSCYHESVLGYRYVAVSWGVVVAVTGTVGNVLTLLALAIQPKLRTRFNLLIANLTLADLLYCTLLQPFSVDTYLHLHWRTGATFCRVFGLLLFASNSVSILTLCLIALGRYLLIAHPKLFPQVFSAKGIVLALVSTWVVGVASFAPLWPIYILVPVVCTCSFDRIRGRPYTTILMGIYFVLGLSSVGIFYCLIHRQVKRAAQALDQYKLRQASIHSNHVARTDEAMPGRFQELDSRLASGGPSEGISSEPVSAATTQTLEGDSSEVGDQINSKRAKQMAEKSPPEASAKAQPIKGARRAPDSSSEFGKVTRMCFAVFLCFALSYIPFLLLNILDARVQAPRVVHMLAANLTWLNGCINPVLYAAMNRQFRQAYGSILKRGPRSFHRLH

Structure (SMILES)	IC50 [nM]
Cc1cccnc1Cn1cc2c(n1)-c1c(oc(C(=O)NC[C@@H]3CCCO3)c1C)CC2 [Example 62, 8-methyl-2-[(3-methylpyridin-2-yl)methyl]-N-[(2S)-tetrahydrofuran-2-ylmethyl]-4,5-dihydro-2H-furo[2,3-g]indazole-7-carboxamide]	110
Cc1c(C(=O)NC[C@@H]2CCCO2)oc2c1-c1nn(CC3CNC3)cc1CC2 [Example 158, 2-(azetidin-3-ylmethyl)-8-methyl-N-[(2S)-tetrahydrofuran-2-ylmethyl]-4,5-dihydro-2H-furo[2,3-g]indazole-7-carboxamide]	1550
Cc1c(C(=O)NC[C@@H]2CCCO2)oc2c1-c1nn(C(C)c3ccccn3)cc1CC2 (mixture of isomers) [Example 317, 8-methyl-N-{[(2S)-oxolan-2-yl]methyl}-2-[(1±)-1-(pyridin-2-yl)ethyl]-4,5-dihydro-2H-furo[2,3-g]indazole-7-carboxamide]	578
Cc1c(C(=O)NCCN2CCN(c3cccc(C(F)(F)F)c3)CC2)oc2c1-c1nn(Cc3ccccn3)cc1CC2 [Example 13, 8-methyl-2-(pyridin-2-ylmethyl)-N-(2-{4-[3-(trifluoromethyl)phenyl]piperazin-1yl}ethyl)-4,5-dihydro-2H-furo[2,3-g]indazole-7-carboxamide]	1650
O=C(NC[C@@H]1COCCO1)c1oc2c(c1C(F)(F)F)-c1nn(CC3CCN(CC4CC4)CC3)cc1CC2 [Example 310, 2-{[1-(cyclopropylmethyl)piperidin-4-yl]methyl}-N-{[(2R)-1,4-dioxan-2-yl]methyl}-8-(trifluoromethyl)-4,5-dihydro-2H-furo[2,3-g]indazole-7-carboxamide]	197
Cc1c(C(=O)NCc2ncco2)oc2c1-c1nn(C[C@H]3COCCO3)cc1C1(CC1)C2 [Example 128, 2′-[(2S)-1,4-dioxan-2-ylmethyl]-8′-methyl-N-(1,3-oxazol-2-ylmethyl)-2′,5′-dihydrospiro[cyclopropane-1,4′-furo[2,3-g]indazole]-7′-carboxamide]	110
Cc1c(C(=O)NCc2ccon2)oc2c1-c1nn(Cc3ccccn3)cc1CC2 [Example 6, 8-methyl-N-(1,2-oxazol-3-ylmethyl)-2-(pyridin-2-ylmethyl)-4,5-dihydro-2H-furo[2,3-g]indazole-7-carboxamide]	800
Cc1c(C(=O)NC[C@@H]2COCCO2)oc2c1-c1nn(CCN3CCN(C(=O)OC(C)(C)C)CC3)cc1CC2 [Example 142, tert-butyl 4-[2-(7-{[(2R)-1,4-dioxan-2-ylmethyl]carbamoyl}-8-methyl-4,5-dihydro-2H-furo[2,3-g]indazol-2-yl)ethyl]piperazine-1-carboxylate]	670
Cc1ncccc1Cn1cc2c(n1)-c1c(oc(C(=O)NC[C@@H]3CCCO3)c1C)CC2 [Example 73, 8-methyl-2-[(2-methylpyridin-3-yl)methyl]-N-[(2S)-tetrahydrofuran-2-ylmethyl]-4,5-dihydro-2H-furo[2,3-g]indazole-7-carboxamide]	140
O=C(NCCc1ccccn1)c1oc2c(c1C(F)(F)F)-c1nn(C[C@H]3COCCO3)cc1CC2 [Example 233, 2-[(2S)-1,4-Dioxan-2-ylmethyl]-N-[2-(pyridin-2-yl)ethyl]-8-(trifluormethyl)-4,5-dihydro-2H-furo[2,3-g]indazol-7-carboxamide]	1120
Cc1c(C(=O)NC[C@H]2CCC3(COC3)O2)oc2c1-c1nn(C[C@H]3COCCO3)cc1C1(CC1)C2 (single isomer, unassigned) [Example 201-2]	112
Cc1c(C(=O)NC[C@@H]2CCCO2)oc2c1-c1nn(C[C@H]3CCO3)cc1CC2 [Example 97, 8-methyl-2-[(2R)-oxetan-2-ylmethyl]-N-[(2S)-tetrahydrofuran-2-ylmethyl]-4,5-dihydro-2H-furo[2,3-g]indazole-7-carboxamide]	620
Cc1c(C(=O)Nc2cccnc2)oc2c1-c1nn(Cc3ccccn3)cc1CC2 [Example 41, 8-methyl-N-(pyridin-3-yl)-2-(pyridin-2-ylmethyl)-4,5-dihydro-2H-furo[2,3-g]indazole-7-carboxamide]	5420
C[C@@H]1Cc2oc(C(=O)NCc3cncs3)c(C(F)(F)F)c2-c2nn(C[C@H]3COCCO3)cc21 (single isomer, unassigned) [Example 316, (4R or 4S)-2-{[(2S)-1,4-dioxan-2-yl]methyl}-4-methyl-N-[(1,3-thiazol-5-yl)methyl]-8-(trifluoromethyl)-4,5-dihydro-2H-furo[2,3-g]indazole-7-carboxamide]	374
Cc1c(C(=O)NC[C@@H]2COCCO2)oc2c1-c1nn(C[C@H]3COCCO3)cc1C1(CCC1)C2 [Example 145]	110
Cc1c(C(=O)NCc2cc(C(F)(F)F)on2)oc2c1-c1nn(Cc3ccccn3)cc1CC2 [Example 25, 8-methyl-2-(pyridin-2-ylmethyl)-N-{[5-(trifluoromethyl)-1,2-oxazol-3-yl]methyl}-4,5-dihydro-2H-furo[2,3-g]indazole-7-carboxamide]	160
Cc1c(C(=O)NCCN2CCN(c3ccc(C(F)(F)F)cn3)CC2)oc2c1-c1nn(Cc3ccccn3)cc1CC2 [Example 12, 8-methyl-2-(pyridin-2-ylmethyl)-N-(2-{4-[5-(trifluoromethyl)pyridin-2-yl]piperazin-1-yl}ethyl)-4,5-dihydro-2H-furo[2,3-g]indazole-7-carboxamide]	2760
Cc1cccc(Cn2cc3c(n2)-c2c(oc(C(=O)NCC4CCCO4)c2C)CC3)n1 (racemic) [Example 66, 8-methyl-2-[(6-methylpyridin-2-yl)methyl]-N-[(2R/S)-tetrahydrofuran-2-ylmethyl]-4,5-dihydro-2H-furo[2,3-g]indazole-7-carboxamide]	160
Cc1c(C(=O)NCc2nocc2C(=O)O)oc2c1-c1nn(Cc3ccccn3)cc1CC2 [Example 31, 3-[({[8-methyl-2-(pyridin-2-ylmethyl)-4,5-dihydro-2H-furo[2,3-g]indazol-7-yl]carbonyl}amino)methyl]-1,2-oxazole-4-carboxylic acid]	> 20000

Now those with a lower IC50, led by results:

IC50 [nM]	Structure (SMILES)
6	Cc1ccc(Cn2cc3c(n2)-c2c(oc(C(=O)NC[C@@H]4CCCO4)c2C(F)(F)F)CC3)cn1 [Example 192]
7	O=C(NC[C@@H]1COCCO1)c1oc2c(c1C(F)(F)F)-c1nn(Cc3ccccn3)cc1C1(CC1)C2 [Example 219, N-[(2R)-1,4-Dioxan-2-ylmethyl]-2′-(pyridin-2-ylmethyl)-8′-(trifluormethyl)-2′,5′-dihydrospiro[cyclopropan-1,4′-furo[2,3-g]indazol]-7′-carboxamide]
27	Cc1c(C(=O)NC[C@@H]2CCCO2)oc2c1-c1nn(Cc3ncccc3Cl)cc1CC2 [Example 60, 2-[(3-chloropyridin-2-yl)methyl]-8-methyl-N-[(2S)-tetrahydrofuran-2-ylmethyl]-4,5-dihydro-2H-furo[2,3-g]indazole-7-carboxamide]
32	O=C(NC[C@@H]1COCCO1)c1oc2c(c1C1CC1)-c1nn(C[C@H]3COCCO3)cc1CC2 [Example 193]
19	Cc1c(C(=O)NC[C@@H]2COCCO2)oc2c1-c1nn(Cc3ccncc3)cc1CC2 [Example 47, N-[(2R)-1,4-dioxan-2-ylmethyl]-8-methyl-2-(pyridin-4-ylmethyl)-4,5-dihydro-2H-furo[2,3-g]indazole-7-carboxamide]
13	C[C@@H]1Cc2oc(C(=O)NC[C@@H]3COCCO3)c(C(F)(F)F)c2-c2nn(CC3CCOCC3)cc21 (single isomer, unassigned) [Example 263, (4R or 4S)-N-{[(2R)-1,4-dioxan-2-yl]methyl}-4-methyl-2-[(oxan-4-yl)methyl]-8-(trifluoromethyl)-4,5-dihydro-2H-furo[2,3-g]indazole-7-carboxamide]
51	CC1(C)CC[C@H](CNC(=O)c2oc3c(c2C(F)(F)F)-c2nn(C[C@H]4COCCO4)cc2CC3)O1 (single isomer, unassigned) [Example 223-2, N-{[(2S or 2R)-5,5-dimethyloxolan-2-yl]methyl}-2-{[(2S)-1,4-dioxan-2-yl]methyl}-8-(trifluoromethyl)-4,5-dihydro-2H-furo[2,3-g]indazole-7-carboxamide]
30	Cc1c(C(=O)NCC2CCC(C)(C)O2)oc2c1-c1nn(Cc3ccccn3)cc1CC2 (racemic) [Example 170]
49	Cc1c(C(=O)NCc2ccon2)oc2c1-c1nn(CC3COc4ncccc4O3)cc1CC2 (racemic) [Example 55, 2-[(2R/S)-2,3-dihydro[1,4]dioxino[2,3-b]pyridin-2-ylmethyl]-8-methyl-N-(1,2-oxazol-3-ylmethyl)-4,5-dihydro-2H-furo[2,3-g]indazole-7-carboxamide]
97	Cc1c(C(=O)NCc2cc(C(C)C)on2)oc2c1-c1nn(Cc3ccccn3)cc1CC2 [Example 18, N-[(5-isopropyl-1,2-oxazol-3-yl)methyl]-8-methyl-2-(pyridin-2-ylmethyl)-4,5-dihydro-2H-furo[2,3-g]indazole-7-carboxamide]
27	O=C(NC[C@@H]1CCCO1)c1oc2c(c1C(F)(F)F)-c1nn(Cc3ccccn3)cc1CC2 [Example 115, 2-(pyridin-2-ylmethyl)-N-[(2S)-tetrahydrofuran-2-ylmethyl]-8-(trifluoromethyl)-4,5-dihydro-2H-furo[2,3-g]indazole-7-carboxamide]
77	Cc1c(C(=O)NC[C@@H]2CCCO2)oc2c1-c1nn(Cc3ccncc3)cc1C1(CCC1)C2 [Example 202]
3	Cc1ccc(Cn2cc3c(n2)-c2c(oc(C(=O)NC[C@@H]4COCCO4)c2C(F)(F)F)CC32CC2)nc1 [Example 215, N-{[(2R)-1,4-dioxan-2-yl]methyl}-2′-[(5-methylpyridin-2-yl)methyl]-8′-(trifluoromethyl)-2′,5′-dihydrospiro[cyclopropane-1,4′-furo[2,3-g]indazole]-7′-carboxamide]
